Test system: MIA PaCa-2 cells
Assay: DNA microarray analysis (Affymetrix Human PrimeView)
Type: cell-based
[1] = gene SRP19, probeset 11758864_at
[2] = gene STC1, probeset 11750279_a_at
[3] = gene TMEM201, probeset 11726819_at
[4] = gene TNFAIP2, probeset 11717823_s_at
[5] = gene TNFRSF12A, probeset 11745020_a_at
[6] = gene TNFSF18, probeset 11737853_at
[7] = gene TRAF1, probeset 11721588_at
[8] = gene TXNRD1, probeset 11750416_a_at
[9] = gene symbol ---, probeset AFFX-M27830_M_at

C=C(CC[C@@H](C(=O)O)[C@H]1[C@H](O)C[C@@]2(C)C3=C(CC[C@]12C)[C@@]1(C)CC[C@H](OC(C)=O)C(C)(C)[C@@H]1CC3)C(C)C [PA, Pachymic acid]
Mean (MiaPaca-2 * PA) (gene SPRY4, probeset 11736669_s_at, MiaPaca-2, PA-treated): 6.19 | Fold-Change (MiaPaca-2 * PA vs. MiaPaca-2 * control) [1]: 1.58 | Mean (MiaPaca-2 * PA) [1]: 8.71 | Fold-Change (MiaPaca-2 * PA vs. MiaPaca-2 * control) [2]: 1.56 | Mean (MiaPaca-2 * PA) [2]: 5.97 | Mean (MiaPaca-2 * PA) (gene STX1A, probeset 11720340_a_at): 6.73 | Fold-Change (MiaPaca-2 * PA vs. MiaPaca-2 * control) [3]: 1.56 | Mean (MiaPaca-2 * PA) [3]: 6.77 | Fold-Change (MiaPaca-2 * PA vs. MiaPaca-2 * control) (gene TNF, probeset 11721577_at): 1.57 | Mean (MiaPaca-2 * PA) (gene TNF, probeset 11721577_at): 5.89 | Fold-Change (MiaPaca-2 * PA vs. MiaPaca-2 * control) [4]: 1.60 | Mean (MiaPaca-2 * PA) [4]: 8.52 | Fold-Change (MiaPaca-2 * PA vs. MiaPaca-2 * control) [5]: 1.59 | Mean (MiaPaca-2 * PA) [5]: 9.93 | Fold-Change (MiaPaca-2 * PA vs. MiaPaca-2 * control) [6]: 1.61 | Mean (MiaPaca-2 * PA) [6]: 7.58 | Fold-Change (MiaPaca-2 * PA vs. MiaPaca-2 * control) (gene TRA2B, probeset 11734663_at, MiaPaca-2): 1.51 | Mean (MiaPaca-2 * PA) (gene TRA2B, probeset 11734663_at, MiaPaca-2, PA-treated): 5.21 | Fold-Change (MiaPaca-2 * PA vs. MiaPaca-2 * control) [7]: 1.57 | Mean (MiaPaca-2 * PA) [7]: 5.45 | Fold-Change (MiaPaca-2 * PA vs. MiaPaca-2 * control) [8]: 1.56 | Mean (MiaPaca-2 * PA) [8]: 9.74 | Fold-Change (MiaPaca-2 * PA vs. MiaPaca-2 * control) [9]: 1.54 | Mean (MiaPaca-2 * PA) [9]: 11.57 | Fold-Change (MiaPaca-2 * PA vs. MiaPaca-2 * control), CDKN1A (probeset 11715388_s_at): 1.87 | Mean (MiaPaca-2 * PA), CDKN1A (probeset 11715388_s_at): 8.59 | Fold-Change (MiaPaca-2 * PA vs. MiaPaca-2 * control), CTGF (probeset 11715441_a_at): 2.27 | Mean (MiaPaca-2 * PA), CTGF (probeset 11715441_a_at): 6.57 | Fold-Change (MiaPaca-2 * PA vs. MiaPaca-2 * control), CTGF (probeset 11715442_s_at): 2.36 | Mean (MiaPaca-2 * PA), CTGF (probeset 11715442_s_at): 7.76 | Fold-Change (MiaPaca-2 * PA vs. MiaPaca-2 * control), CYR61 (probeset 11715493_a_at): 2.12 | Mean (MiaPaca-2 * PA), CYR61 (probeset 11715493_a_at): 10.88 | Fold-Change (MiaPaca-2 * PA vs. MiaPaca-2 * control), SERPINE1 (probeset 11715636_a_at): 1.72 | Mean (MiaPaca-2 * PA), SERPINE1 (probeset 11715636_a_at): 9.63 | Fold-Change (MiaPaca-2 * PA vs. MiaPaca-2 * control), DUSP1 (probeset 11715766_a_at): 1.72 | Mean (MiaPaca-2 * PA), DUSP1 (probeset 11715766_a_at): 8.75 | Fold-Change (MiaPaca-2 * PA vs. MiaPaca-2 * control), HMOX1 (probeset 11716939_a_at): 1.83 | Mean (MiaPaca-2 * PA), HMOX1 (probeset 11716939_a_at): 7.80 | Fold-Change (MiaPaca-2 * PA vs. MiaPaca-2 * control), GADD45A (probeset 11717039_a_at): 1.88 | Mean (MiaPaca-2 * PA), GADD45A (probeset 11717039_a_at): 11.35 | Fold-Change (MiaPaca-2 * PA vs. MiaPaca-2 * control), EGR1 (probeset 11717860_a_at): 1.78 | Mean (MiaPaca-2 * PA), EGR1 (probeset 11717860_a_at): 10.72 | Fold-Change (MiaPaca-2 * PA vs. MiaPaca-2 * control), DNAJA4 (probeset 11718618_a_at): 2.01 | Mean (MiaPaca-2 * PA), DNAJA4 (probeset 11718618_a_at): 6.51 | Fold-Change (MiaPaca-2 * PA vs. MiaPaca-2 * control), IL8 (probeset 11718841_s_at): 2.40 | Mean (MiaPaca-2 * PA), IL8 (probeset 11718841_s_at): 12.69 | Fold-Change (MiaPaca-2 * PA vs. MiaPaca-2 * control), TNFAIP3 (probeset 11718939_s_at): 2.11 | Mean (MiaPaca-2 * PA), TNFAIP3 (probeset 11718939_s_at): 7.50 | Fold-Change (MiaPaca-2 * PA vs. MiaPaca-2 * control), TNFAIP3 (probeset 11718940_a_at): 2.00 | Mean (MiaPaca-2 * PA), TNFAIP3 (probeset 11718940_a_at): 6.10 | Fold-Change (MiaPaca-2 * PA vs. MiaPaca-2 * control), ATF3 (probeset 11719344_a_at): 3.30 | Mean (MiaPaca-2 * PA), ATF3 (probeset 11719344_a_at): 7.56 | Fold-Change (MiaPaca-2 * PA vs. MiaPaca-2 * control), CXCL1 (probeset 11719366_s_at): 2.03 | Mean (MiaPaca-2 * PA), CXCL1 (probeset 11719366_s_at): 12.27 | Fold-Change (MiaPaca-2 * PA vs. MiaPaca-2 * control), TRIB3 (probeset 11719811_a_at): 1.77 | Mean (MiaPaca-2 * PA), TRIB3 (probeset 11719811_a_at): 9.38 | Fold-Change (MiaPaca-2 * PA vs. MiaPaca-2 * control), HBEGF (probeset 11719898_s_at): 2.54 | Mean (MiaPaca-2 * PA), HBEGF (probeset 11719898_s_at): 8.25 | Fold-Change (MiaPaca-2 * PA vs. MiaPaca-2 * control), IL1B (probeset 11719916_at): 1.90 | Mean (MiaPaca-2 * PA), IL1B (probeset 11719916_at): 7.92 | Fold-Change (MiaPaca-2 * PA vs. MiaPaca-2 * control), IER3 (probeset 11720062_s_at): 2.10 | Mean (MiaPaca-2 * PA), IER3 (probeset 11720062_s_at): 10.23 | Fold-Change (MiaPaca-2 * PA vs. MiaPaca-2 * control), RELB (probeset 11722141_at): 1.71 | Mean (MiaPaca-2 * PA), RELB (probeset 11722141_at): 7.47 | Fold-Change (MiaPaca-2 * PA vs. MiaPaca-2 * control), B3GNT5 (probeset 11722705_at): 1.83 | Mean (MiaPaca-2 * PA), B3GNT5 (probeset 11722705_at): 6.95 | Fold-Change (MiaPaca-2 * PA vs. MiaPaca-2 * control), BIRC3 (probeset 11722850_a_at): 1.69 | Mean (MiaPaca-2 * PA), BIRC3 (probeset 11722850_a_at): 8.98 | Fold-Change (MiaPaca-2 * PA vs. MiaPaca-2 * control), BIRC3 (probeset 11722851_at): 1.77 | Mean (MiaPaca-2 * PA), BIRC3 (probeset 11722851_at): 7.17 | Fold-Change (MiaPaca-2 * PA vs. MiaPaca-2 * control), CDCP1 (probeset 11722867_at): 1.68 | Mean (MiaPaca-2 * PA), CDCP1 (probeset 11722867_at): 8.84 | Fold-Change (MiaPaca-2 * PA vs. MiaPaca-2 * control), HSPA6 (probeset 11723050_a_at): 9.74 | Mean (MiaPaca-2 * PA), HSPA6 (probeset 11723050_a_at): 8.06 | Fold-Change (MiaPaca-2 * PA vs. MiaPaca-2 * control), ZFAND2A (probeset 11723753_a_at): 2.17 | Mean (MiaPaca-2 * PA), ZFAND2A (probeset 11723753_a_at): 9.04 | Fold-Change (MiaPaca-2 * PA vs. MiaPaca-2 * control), FOSL1 (probeset 11724478_s_at): 1.74 | Mean (MiaPaca-2 * PA), FOSL1 (probeset 11724478_s_at): 8.17 | Fold-Change (MiaPaca-2 * PA vs. MiaPaca-2 * control), GBP1 (probeset 11726329_x_at): 1.76 | Mean (MiaPaca-2 * PA), GBP1 (probeset 11726329_x_at): 5.88 | Fold-Change (MiaPaca-2 * PA vs. MiaPaca-2 * control), SERPINB8 (probeset 11728413_at): 1.95 | Mean (MiaPaca-2 * PA), SERPINB8 (probeset 11728413_at): 8.88 | Fold-Change (MiaPaca-2 * PA vs. MiaPaca-2 * control), CXCL3 (probeset 11728476_a_at): 2.47 | Mean (MiaPaca-2 * PA), CXCL3 (probeset 11728476_a_at): 8.40 | Fold-Change (MiaPaca-2 * PA vs. MiaPaca-2 * control), CXCL3 (probeset 11728477_at): 2.55 | Mean (MiaPaca-2 * PA), CXCL3 (probeset 11728477_at): 8.95 | Fold-Change (MiaPaca-2 * PA vs. MiaPaca-2 * control), HSPA1A /// HSPA1B (probeset 11729119_a_at): 1.71 | Mean (MiaPaca-2 * PA), HSPA1A /// HSPA1B (probeset 11729119_a_at): 11.39
